In the supplement of paper PMC10307832:

Tests used:
Assay in all cases: relative viability (nuclei count vs DMSO), 5 days (fraction); higher = more cells survive
Bortezomib + Vorinostat = compound: CC(C)C[C@H](NC(=O)[C@H](Cc1ccccc1)NC(=O)c1cnccn1)B(O)O [Bortezomib] + O=C(CCCCCCC(=O)Nc1ccccc1)NO [Vorinostat] (partner 1 µM)
Summary of the method: (§1)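 Dosing by pin tool came one day after lung cancer cell lines were seeded in 1536-well plates, using either one drug or a fixed anchor-drug dose plus five library-drug doses (not always all listed) in √10 steps. After 5 days, nuclei were counted on 4× images. Relative viability is treated-well nuclei count divided by vehicle-well nuclei count, and values are medians of duplicate plates.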

[1] = compound: CC1=CC(=NN1)NC2=CC(=NC(=N2)/C=C/C3=CC=CC=C3)N4CCN(CC4)C + CCNC(=O)c1noc(-c2cc(C(C)C)c(O)cc2O)c1-c1ccc(CN2CCOCC2)cc1 [Luminespib] (partner 0.01 µM)
Summary of the method: as §1

[2] = compound: CC1=CC(=NN1)NC2=CC(=NC(=N2)/C=C/C3=CC=CC=C3)N4CCN(CC4)C + COc1cccc2cc(-c3nc([C@H]4CC[C@H](C(=O)O)CC4)n4ncnc(N)c34)[nH]c12 [OSI-027] (partner 0.5 µM)
Summary of the method: as §1

Obatoclax + OSI-027 = compound: COC1=CC(c2cc3ccccc3[nH]2)=N/C1=C\c1[nH]c(C)cc1C [Obatoclax] + COc1cccc2cc(-c3nc([C@H]4CC[C@H](C(=O)O)CC4)n4ncnc(N)c34)[nH]c12 [OSI-027] (partner 0.5 µM)
Summary of the method: as §1

| Cell Line | relative viability (Bortezomib + Vorinostat; first compound 0.0002 µM) | relative viability (Bortezomib + Vorinostat; first compound 0.000632 µM) | relative viability (Bortezomib + Vorinostat; first compound 0.002 µM) | relative viability (Bortezomib + Vorinostat; first compound 0.006325 µM) | relative viability (Bortezomib + Vorinostat; first compound 0.02 µM) | relative viability ([1]; first compound 0.08 µM) | relative viability ([1]; first compound 0.253 µM) | relative viability ([1]; first compound 0.8 µM) | relative viability ([1]; first compound 2.53 µM) | relative viability ([1]; first compound 8 µM) | relative viability ([2]; first compound 0.08 µM) | relative viability ([2]; first compound 0.253 µM) | relative viability ([2]; first compound 0.8 µM) | relative viability ([2]; first compound 2.53 µM) | relative viability ([2]; first compound 8 µM) | relative viability (Obatoclax + OSI-027; first compound 0.01 µM) | relative viability (Obatoclax + OSI-027; first compound 0.03162 µM) | relative viability (Obatoclax + OSI-027; first compound 0.1 µM) | relative viability (Obatoclax + OSI-027; first compound 0.3162 µM) | relative viability (Obatoclax + OSI-027; first compound 1 µM) |
| --- | --- | --- | --- | --- | --- | --- | --- | --- | --- | --- | --- | --- | --- | --- | --- | --- | --- | --- | --- | --- |
| SK-LU-1 | 0.733 | 0.84 | 0.314 | 0.178 | 0.186 | 0.204 | 0.192 | 0.136 | 0.148 | 0.0748 | 0.367 | 0.299 | 0.376 | 0.119 | 0.0636 | 0.366 | 0.315 | 0.273 | 0.205 | 0.166 |
| LCLC-97TM1 | 0.615 | 0.695 | 0.748 | 0.148 | 0.0598 | 0.806 | 0.796 | 0.67 | 0.341 | 0.0891 | 0.427 | 0.335 | 0.564 | 0.192 | 0.2 | 0.606 | 0.553 | 0.693 | 0.347 | 0.52 |
| NCI-H838 | 0.683 | 0.752 | 0.676 | 0.157 | 0.144 | 0.31 | 0.26 | 0.242 | 0.25 | 0.118 | 0.346 | 0.413 | 0.385 | 0.208 | 0.103 | 0.498 | 0.367 | 0.46 | 0.385 | 0.284 |
| NCI-H520 | 0.825 | 0.713 | 0.177 | 0.15 | 0.138 | 0.25 | 0.269 | 0.186 | 0.195 | 0.242 | 0.289 | 0.286 | 0.214 | 0.165 | 0.128 | 0.256 | 0.284 | 0.406 | 0.251 | 0.243 |
